Test results: patent US6710168B1, “Glycopeptide antibiotics, combinatorial libraries of glycopeptide antibiotics and methods of producing same” (The Trustees of the University of Princeton, priority 1999, dated 2004)
In brackets after ≈: the same amount, converted by molar mass.

Tests used:
Format in all cases: cell-based
[1] = tested on: gentamicin, streptmycin, vancomycin resistant Enterococcus faecalis (ATCC 51299); test: microbe, parasite or virus in culture; conditions: for MIC VREF: Enterococcus faecalis ATCC51299, vancomycin resistance
Procedure: (§1) Evaluation of vancomycin analogs is performed using in vitro susceptibility tests and a time-kill assay. [NCCL Standard, 1993] In susceptibility tests, five strains of bacteria, two of the most important: Staphylococcus aureus and Enterococcus faecalis (both susceptible and resistant strains), and Bacillus cereus are chosen and bacteria viability remaining in each well is evaluated using a colorimetric assay based on the tetrazolium salt 3-(4,5-dimethyl-2-thiazolyl)-2,5-diphenyl-2H tetrazolium bromide (MTT) and minimum inhibitory concentration (MIC) values are determined as μg/mL. [Mosmann, T. (1983); Damour, O., et al. (1992); Mikami, Y., et al. (1994)] This assay gives susceptibility information quickly, efficiently, and clearly.
(§2) All strains [Bacillus cereus (ATCC® 11778), Staphylococcus aureus (ATCC® 29213), Methicillin resistant Staphylococcus aureus (ATCC® 33591), Enterococcus faecalis (ATCC® 29212), and gentamicin, streptmycin, vancomycin resistant Enterococcus faecalis (ATCC® 51299), are purchased from REMEL (Lenexa, Kans.).
(§3) MICs are determined by the microdilution method using 96-well microplates. Samples are suspended with Cation Adjusted (20 to 25 mg of Ca^2+/mL and 10 to […] of Mg^2+) Mueller-Hinton broth (Difco Laboratories, Detroit, Mich.) and are two-fold diluted from 5 μg/mL to […] on microplates (12 step dilution). To each well, which contained 100 μL of cell suspension (10^6 CFU/mL), 100 μL of antibiotic solution is added and the plates are incubated at 37° C. for 24 h. 50 μL of MTT solution (1 mg/mL) is added to each well, then the plates are incubated under the same conditions (incubation time; 30 min for Bacillus cereus, Staphylococcus aureus, and Methicillin resistant Staphylococcus aureus; 2 hours for Enterococcus faecalis and Gentamicin, Streptmycin, Vancomycin Enterococcus faecalis). MTT is a yellow tetrazolium salt that is reduced by mitochondrial enzymes in viable cells to an insoluble blue formazan product. MIC values are evaluated by observing the lowest drug concentration to inhibit bacteria growth.

[2] = tested on: Enterococcus faecium CL5137, VanA; test: MIC susceptibility test; conditions: Enterococcus faecium CL5137, VanA
[3] = tested on: Enterococcus faecalis CL5244, VanB; test: MIC susceptibility test; conditions: Enterococcus faecalis CL5244, VanB
Procedure: as §1, §3

[4] = tested on: Bacillus cereus (ATCC 11778); test: MIC susceptibility test, microdilution with MTT readout; conditions: for MIC BC: Bacillus ceres ATCC11778
Procedure: as §1, §2, §3

[5] = tested on: Staphylococcus aureus (ATCC 29213); test: as above; conditions: Staphylococcus aureus ATCC29213
Procedure: as §1, §2, §3

[6] = tested on: Enterococcus faecalis (ATCC 29212); test: as above; conditions: Enterococcus faecalis ATCC29212
Procedure: as §1, §2, §3

[7] = tested on: Methicillin resistant Staphylococcus aureus (ATCC 33591); test: as above; conditions: Staphylococcus aureus ATCC3359, Methicillin resistance
Procedure: as §1, §2, §3

Row | SMILES | MIC ([1]; Enterococcus faecalis, ATCC51299, read-out: MIC VREF) [µg/mL] | MIC ([2]; read-out: MIC CL5137) [µg/mL] | MIC ([3]; read-out: MIC CL5244) [µg/mL] | MIC ([4]; Bacillus cereus, ATCC11778, read-out: MIC BC) [µg/mL] | MIC ([5]; read-out: MIC SA) [µg/mL] | MIC ([6]; read-out: MIC EF) [µg/mL] | MIC ([7]; ATCC 3359 / ATCC 33591 / MRSA, read-out: MIC MRSA) [µg/mL] | MIC VREF [1] | MIC CL5137 [2] | MIC CL5244 [3] [µg/mL] | MIC BC [4] | MIC SA [5] | MIC EF [6] | MIC MRSA [7]
1 | CN[C@@H](CC(C)C)C(=O)N[C@H]1C(=O)N[C@@H](CC(N)=O)C(=O)N[C@H]2C(=O)NC3C(=O)N[C@H](C(=O)N[C@@H](C(=O)O)c4cc(O)cc(O)c4-c4cc3ccc4O)[C@H](O)c3ccc(c(Cl)c3)Oc3cc2cc(c3OC2OC(CNCc3cc(Cl)ccc3O)C(O)C(O)C2OC2CC(C)(N)C(O)C(C)O2)Oc2ccc(cc2Cl)[C@H]1O (stereo partly drawn) [XXXIX, Glucose-C6-5-chloro-2-hydroxy-benzylamine Vancomycin] | > 5 | > 50 | 25 (≈ 15.7 µM) | 1.3 (≈ 0.818 µM) | 1.3 (≈ 0.818 µM) | 2.5 (≈ 1.57 µM) | 1.3 (≈ 0.818 µM) | – | – | – | – | – | – | –
2 | CNC(CC(C)C)C(=O)NC1C(=O)NC(CC(N)=O)C(=O)NC2C(=O)NC3C(=O)NC(C(=O)NC(C(=O)O)c4cc(O)cc(O)c4-c4cc3ccc4O)C(O)c3ccc(c(Cl)c3)Oc3cc2cc(c3OC2OC(CN=P(c3ccccc3)(c3ccccc3)c3ccccc3)C(O)C(O)C2OC2CC(C)(NCc3ccc(-c4ccc(Cl)cc4)cc3)C(O)C(C)O2)Oc2ccc(cc2Cl)C1O.O=C(O)C(F)(F)F (stereo not drawn) [CXXXVI, N-4-(4-Chlorophenyl)benzyl Vancosamine-glucose-C6-iminotriphenylphosphorane Vancomycin] | – | – | – | – | – | – | – | 0.16 µg/mL | 5.0 µg/mL | 0.32 | 1.3 µg/mL | 1.3 µg/mL | 0.32 µg/mL | 0.32 µg/mL
3 | CNC(CC(C)C)C(=O)NC1C(=O)NC(CC(N)=O)C(=O)NC2C(=O)NC3C(=O)NC(C(=O)NC(C(=O)O)c4cc(O)cc(O)c4-c4cc3ccc4O)C(O)c3ccc(c(Cl)c3)Oc3cc2cc(c3OC2OC(CNCc3ccc(-c4ccc(Cl)cc4)o3)C(O)C(O)C2OC2CC(C)(NCc3ccc(-c4ccc(Cl)cc4)cc3)C(O)C(C)O2)Oc2ccc(cc2Cl)C1O (stereo not drawn) [L, Glucose-C6-N-5-(4-chlorophenyl)furan-1-methylene-vancosamine-N-4-(4-chlorophenyl)benzyl Vancomycin] | – | – | – | – | – | – | – | 1.0 µg/mL (≈ 0.544 µM) | 6.3 µg/mL (≈ 3.42 µM) | 0.8 (≈ 0.435 µM) | 3.8 µg/mL (≈ 2.07 µM) | 5.0 µg/mL (≈ 2.72 µM) | 1.3 µg/mL (≈ 0.707 µM) | 2.5 µg/mL (≈ 1.36 µM)
4 | CNC(CC(C)C)C(=O)NC1C(=O)NC(CC(N)=O)C(=O)NC2C(=O)NC3C(=O)NC(C(=O)NC(C(=O)O)c4cc(O)cc(O)c4-c4cc3ccc4O)C(O)c3ccc(c(Cl)c3)Oc3cc2cc(c3OC2OC(CNC(=O)c3cnc4ccccc4n3)C(O)C(O)C2OC2CC(C)(N)C(O)C(C)O2)Oc2ccc(cc2Cl)C1O (stereo not drawn) [XXXVII, Glucose-C6-N-2-quinoxaloyl Vancomycin] | – | – | – | – | – | – | – | 0.32 µg/mL (≈ 0.199 µM) | 50< μg/mL | 1.6 (≈ 0.997 µM) | 0.32 µg/mL (≈ 0.199 µM) | 0.32 µg/mL (≈ 0.199 µM) | 0.32 µg/mL (≈ 0.199 µM) | 0.63 µg/mL (≈ 0.393 µM)
5 | CCCCCCCCCCNC1(C)CC(OC2C(Oc3c4cc5cc3Oc3ccc(cc3Cl)C(O)C3NC(=O)C(NC(=O)C5NC(=O)C(CC(N)=O)NC(=O)C(NC(=O)C(CC(C)C)NC)C(O)c5ccc(c(Cl)c5)O4)c4ccc(O)c(c4)-c4c(O)cc(O)cc4C(C(=O)O)NC3=O)OC(CNC(=O)c3cnc4ccccc4n3)C(O)C2O)OC(C)C1O (stereo not drawn) [LI, Glucose-C6-N-2-quinoxaloyl-vancosamine-N-decyl Vancomycin] | – | – | – | – | – | – | – | 1.3 µg/mL (≈ 0.745 µM) | 6.3 µg/mL (≈ 3.61 µM) | 0.2 (≈ 0.115 µM) | 2.5 µg/mL (≈ 1.43 µM) | 5.0< μg/mL | 0.63 µg/mL (≈ 0.361 µM) | 5.0< μg/mL
6 | CCCCCCCCCCCCCC(=O)NCC1OC(Oc2c3cc4cc2Oc2ccc(cc2Cl)C(O)C2NC(=O)C(NC(=O)C4NC(=O)C(CC(N)=O)NC(=O)C(NC(=O)C(CC(C)C)NC)C(O)c4ccc(c(Cl)c4)O3)c3ccc(O)c(c3)-c3c(O)cc(O)cc3C(C(=O)O)NC2=O)C(OC2CC(C)(N)C(O)C(C)O2)C(O)C1O (stereo not drawn) [XXXV, Glucose-C6-N-myristoyl Vancomycin] | – | – | – | – | – | – | – | 0.16 µg/mL (≈ 0.0965 µM) | – | – | 3.8 µg/mL (≈ 2.29 µM) | 2.5 µg/mL (≈ 1.51 µM) | 0.015 µg/mL (≈ 0.00904 µM) | 1.3 µg/mL (≈ 0.784 µM)
7 | CCCCCCCCCCNCC1OC(Oc2c3cc4cc2Oc2ccc(cc2Cl)C(O)C2NC(=O)C(NC(=O)C4NC(=O)C(CC(N)=O)NC(=O)C(NC(=O)C(CC(C)C)NC)C(O)c4ccc(c(Cl)c4)O3)c3ccc(O)c(c3)-c3c(O)cc(O)cc3C(C(=O)O)NC2=O)C(OC2CC(C)(N)C(O)C(C)O2)C(O)C1O (stereo not drawn) [XXXI, Glucose-C6-N-decyl Vancomycin] | – | – | – | – | – | – | – | 2.5 µg/mL (≈ 1.57 µM) | – | – | 1.3 µg/mL (≈ 0.818 µM) | 1.3 µg/mL (≈ 0.818 µM) | 0.32 µg/mL (≈ 0.201 µM) | 1.3 µg/mL (≈ 0.818 µM)
8 | CNC(CC(C)C)C(=O)NC1C(=O)NC(CC(N)=O)C(=O)NC2C(=O)NC3C(=O)NC(C(=O)NC(C(=O)O)c4cc(O)cc(O)c4-c4cc3ccc4O)C(O)c3ccc(c(Cl)c3)Oc3cc2cc(c3OC2OC(CNC(=O)c3ccccc3I)C(O)C(O)C2OC2CC(C)(N)C(O)C(C)O2)Oc2ccc(cc2Cl)C1O (stereo not drawn) [XXXVI, Glucose-C6-N-2-iodobenzoyl Vancomycin] | – | – | – | – | – | – | – | 2.5 µg/mL (≈ 1.49 µM) | – | – | 1.3 µg/mL (≈ 0.775 µM) | 1.3 µg/mL (≈ 0.775 µM) | 1.3 µg/mL (≈ 0.775 µM) | 2.5 µg/mL (≈ 1.49 µM)
9 | CNC(=S)NCC1OC(Oc2c3cc4cc2Oc2ccc(cc2Cl)C(O)C2NC(=O)C(NC(=O)C4NC(=O)C(CC(N)=O)NC(=O)C(NC(=O)C(CC(C)C)NC)C(O)c4ccc(c(Cl)c4)O3)c3ccc(O)c(c3)-c3c(O)cc(O)cc3C(C(=O)O)NC2=O)C(OC2CC(C)(N)C(O)C(C)O2)C(O)C1O (stereo not drawn) [XXXII, Glucose-C6-N-thiocarbonyl Methylamino Vancomycin] | – | – | – | – | – | – | – | 5.0 µg/mL (≈ 3.29 µM) | – | – | 1.9 µg/mL (≈ 1.25 µM) | 1.9 µg/mL (≈ 1.25 µM) | 1.3 µg/mL (≈ 0.854 µM) | 2.5 µg/mL (≈ 1.64 µM)
10 | CNC(CC(C)C)C(=O)NC1C(=O)NC(CC(N)=O)C(=O)NC2C(=O)NC3C(=O)NC(C(=O)NC(C(=O)O)c4cc(O)cc(O)c4-c4cc3ccc4O)C(O)c3ccc(c(Cl)c3)Oc3cc2cc(c3OC2OC(CSCC(=O)O)C(O)C(O)C2OC2CC(C)(N)C(O)C(C)O2)Oc2ccc(cc2Cl)C1O (stereo not drawn) [LXXI, Glucose-C6-thioacetato Vancomycin] | – | – | – | – | – | – | – | 5.0< μg/mL | – | – | 5.0< μg/mL | 5.0 µg/mL (≈ 3.28 µM) | 5.0< μg/mL | 5.0< μg/mL
11 | CNC(CC(C)C)C(=O)NC1C(=O)NC(CC(N)=O)C(=O)NC2C(=O)NC3C(=O)NC(C(=O)NC(C(=O)O)c4cc(O)cc(O)c4-c4cc3ccc4O)C(O)c3ccc(c(Cl)c3)Oc3cc2cc(c3OC2OC(CNC(=O)c3cccs3)C(O)C(O)C2OC2CC(C)(N)C(O)C(C)O2)Oc2ccc(cc2Cl)C1O (stereo not drawn) [XXXIII, Glucose-C6-N-(thiophene-2-carboxamide) Vancomycin] | – | – | – | – | – | – | – | 5.0 µg/mL (≈ 3.21 µM) | – | – | 1.3 µg/mL (≈ 0.834 µM) | 1.3 µg/mL (≈ 0.834 µM) | 1.3 µg/mL (≈ 0.834 µM) | 2.5 µg/mL (≈ 1.6 µM)
12 | CNC(CC(C)C)C(=O)NC1C(=O)NC(CC(N)=O)C(=O)NC2C(=O)NC3C(=O)NC(C(=O)NC(C(=O)O)c4cc(O)cc(O)c4-c4cc3ccc4O)C(O)c3ccc(c(Cl)c3)Oc3cc2cc(c3OC2OC(CSC(C)C)C(O)C(O)C2OC2CC(C)(N)C(O)C(C)O2)Oc2ccc(cc2Cl)C1O (stereo not drawn) [LIII, Glucose-C6-thiopropianato Vancomycin] | – | – | – | – | – | – | – | 5.0< μg/mL | – | – | 1.3 µg/mL (≈ 0.862 µM) | 2.5 µg/mL (≈ 1.66 µM) | 2.5 µg/mL (≈ 1.66 µM) | 2.5 µg/mL (≈ 1.66 µM)
13 | CNC(CC(C)C)C(=O)NC1C(=O)NC(CC(N)=O)C(=O)NC2C(=O)NC3C(=O)NC(C(=O)NC(C(=O)O)c4cc(O)cc(O)c4-c4cc3ccc4O)C(O)c3ccc(c(Cl)c3)Oc3cc2cc(c3OC2OC(CNC(=O)CN)C(O)C(O)C2OC2CC(C)(N)C(O)C(C)O2)Oc2ccc(cc2Cl)C1O (stereo not drawn) [XXXIV, Glucose-C6-N-(glycine-carboxamide) Vancomycin] | – | – | – | – | – | – | – | 5.0< μg/mL | – | – | 5.0 µg/mL (≈ 3.32 µM) | 1.9 µg/mL (≈ 1.26 µM) | 2.5 µg/mL (≈ 1.66 µM) | 2.5 µg/mL (≈ 1.66 µM)
